{
  "source": "patent US8304211B2",
  "about": "“Methods of screening molecular libraries and active molecules identified thereby” (priority 2002, dated 2012)",
  "key": {"[1]": {"system": "SW480 cells", "assay": "Dose response in SW480", "assay_type": "cell-based, human", "conditions": "2 days", "experimental": "1. Dissolve the drug at a concentration of 10 mg/ml in PBS.\n3. A confluent flask of SW480 cells was treated with trypsin and the cells were suspended in growth media at concentrations of 5×10^5 cells/ml.\n5. Incubate at 37° C., 5% CO2 for 2 days."}, "[2]": {"system": "normal human lymphocytes", "conditions": "3.125-800 g/ml as printed, 2 days", "procedure": "Growth media used is the RPMI-1640 (Gibco Laboratories, Grand Island, N.Y.) supplemented with 25 mM Hepes buffer, 10% FBS serum (Gibco), 100 U/ml penicillin/streptomycin, 50 μg/ml gentamycin, 2 mM L-glutamin, 1× nonessential amino acids (Gibco)\nIn a 50-ml centrifugation tube, add 10 ml of Lymphoprep™. 2. Mix 15 ml blood and 15 ml HBSS-buffer (containing heparin). 3. Carefully add the blood mixture from step 2, to the tubes containing Lymphoprep™ without mixing the phases. 4. Centrifuge at 450 g at room temperature for 45 min. 5. Isolate the Buffy-coat layer containing the PBMC (peripheral blood mononuclear cells), and place in a fresh tube. 6. Add 7 ml HBSS-buffer to the tube to wash the PBMC. 7. Centrifuge 5-10 min 600 g. 8. Remove the supernatant and wash the PBMC again with a total of 10-ml HBSS-. 9. Suspend the cells in complete media RPMI 1640. Incubate the cells in a small culture flask for 1 hour at 37° C. 10. Remove the unattached cells (lymphocytes) from the small culture flask and dilute the cells to a concentration of 5×10^5 cell/ml. 11. Dissolve drug at 10 mg/ml in PBS. 12. Add 100 μl of growth media to the rest of the wells. 13. Prepare 100 l of a series of concentration of 1600, 800, 400, 200, 100, 50, 25, 12.5, 6.25 μg/ml were made. Triplicate wells were used for each concentration as well as the control (0.0 g/ml), for each of Drug1, 2 and 3. 14. […]"}, "[3]": {"target": "TrpR (G85E) (Escherichia coli, UniProt P0A881, G85E)", "conditions": "peptide expressed from pPep plasmid", "experimental": "(§1) A λRTLF culture containing pTrpRep(WT), pTrpRep(T44M), pTrprG85E, and pTrpRep(None) were transformed with one of pPep(MGFLR) or pPep(MGFWR), and grown in both BTTRG and BTTRA media to an OD of 0.6 at wavelength 600 at 30° C. with shaking. Two hundred microliters of cultures assayed for β-galactosidase levels at wavelength 405 nm as described in Fenton et al (1998) BBRC 242(1):71-78.\n(§2) λRTLF cultures containing one of pTrpRep(WT), pTrpRep(T44M), pTrprG85E, or pTrpRep(None) were grown in BTTRG media supplemented with one of following synthesized peptides MGFLR, MGFWR, MGRRW, FLR, FWR at a concentration of 1 mM. The cultures were grown to an OD of 0.6 at wavelength 600 at 30° C. with shaking. Two hundred microlitres of cultures assayed for -galactosidase levels at wavelength 405 as described in Fenton et al (1998) supra."}, "[4]": {"target": "T1, TrpR(T44M) (Escherichia coli, UniProt P0A881, T44M)", "conditions": "peptide expressed from pPep plasmid, arabinose induced", "experimental": "as §1, §2\nThe cultures were grown to an OD of 0.6 at wavelength 600 at 30° C. with shaking."}, "[5]": {"target": "T1, TrpR(T44M)", "conditions": "arabinose induced expression, both in the presence and absence of tryptophan", "procedure": "RNA was electophoresed through a 1% formaldehyde gel according to Sambrooke et al's Manual (1989). The gel was capillary blotted onto nitrocellulose filter paper using the standard protocols. RNA was UV crosslinked by 45 seconds of UV exposure. The filter was prehydridised for 3 hours at 65 C and then hybridised for 36 hours at 65° C. Hybridisation buffers were in accordance with Sambrook. The filter was dried at room temperature and placed in a phosphoimager cassette overnight. The filter was then scanned by Molecular Dynamics phosphoimager 400e (880 E. Argues Ave, Sunnyvale Calif. 94086)."}, "[6]": {"system": "R273H/P309S p53 mutant in SW480.7 cells", "assay": "RT-PCR analysis of mRNA level of p53 transactivated genes", "assay_type": "cell-based, Homo sapiens (human)", "conditions": "ligand transfected SW480.7 compared with empty pCEP4 transfected SW480.7, RT-PCR", "excerpt": "Total RNA was collected, from two wells of one ligand transfected SW480.7 plate and one pCEP4 transfected SW480.7 plate each day on day 0, day 1, and day 2 after transfection. Thus RNA samples were harvested as SW480.7/Ligand-0 day, SW480.7/Ligand-1 day, SW480.7/Ligand-2 day, SW480.7/pCEP4-0 day, SW480.7/pCEP4-1 day, SW480.7/pCEP4-2 day. Protocol for total RNA extraction by TRIZOL® Reagent was according to that given by Life Technology:\nFirst-Strand cDNA Synthesis • 1. For each RNA sample, combine the following reagents in a sterile 0.2-ml reaction tube:\n• 2. Mix and spin the tube briefly. • 3. Incubate the tube at 70° C. in a thermal cycler for 2 min. • 4. Spin the tube briefly to collect contents at the bottom. Keep tube at room temperature. • 5. Add the following to each reaction tube:\n• 6. Gently vortex and spin the tubes briefly. • 7. Incubate the tubes at 42° C. for 1 hr in an air incubator or cycler. • 8. Add 40 μl TE buffer (10 mM Tris (pH7.6), 1 mM EDTA) to dilute the first-strand reaction product. • 9. Heat tubes at 72° C. for 7 min to inactivate reverse transcriptase. • 10. Samples can be stored at −20° C. for up to three months. cDNA Amplification by PCR • 1. Preheat the PCR thermal cycler to 95° C. • 2. For each reaction, 5 μl of diluted first-strand cDNA and 5 μl of deionized water are added to a labeled 0.2-ml reaction tube. • 3. Prepare a master mix for all reaction tubes, plus one additional tube. For each reaction:\n• 4. Mix by vortexing and spin the tube briefly. • 5. Aliquot 40 μl of the PCR Master Mix into each tube from Step 2. • 6. Cap the tube, and place it in the preheated thermal cycler. • 7. PCR was carried out using the following cycling parameters:\n• 8. Electrophoreses 5 μl of each PCR reaction alongside 0.1 μg of 1-kb DNA ladder on a 1.2% agarose/EtBr gel in 1× TBE buffer. Results"}, "[7]": {"system": "U2-OS cells", "assay": "Validation of selected peptide ligand: cell proliferation/death after transfection", "assay_type": "cell-based, Homo sapiens (human)", "conditions": "U2-OS (wild type p53), ligand expressed from pCEP4 plasmid, without puromycin selection", "experimental": "(§3) Cells SW480.7, U-2OS, and Sa-os2 were transfected with peptide ligand and pCEP4 parallelly using the calcium phosphate method.\n(§4) After transfection, cells were cultured without drug selection and diluted at the ratio of 1:100 every five days. Cell proliferation status was closely observed until ligand transfected SW480.7 cells died out. Life staining with 0.4% trypan blue was applied to determine the death of the cells. Dead cells can not exclude the dye thus were stained blue. Living cells can pump the dye outside thus were not stained."}, "[8]": {"system": "Saos-2 cells", "assay": "Validation of selected peptide ligand: cell proliferation/death after transfection", "assay_type": "cell-based, Homo sapiens (human)", "conditions": "Saos-2 (p53 null), ligand expressed from pCEP4 plasmid, without puromycin selection", "experimental": "as §3, §4"}, "[9]": {"system": "SW480.7 cells", "assay": "Validation of selected peptide ligand: cell proliferation/death after transfection", "assay_type": "cell-based, Homo sapiens (human)", "conditions": "SW480.7, ligand expressed from pCEP4 plasmid, 15 days without puromycin selection", "experimental": "as §3, §4"}},
  "note": "Starred links: 1 amine or outer side, 2 acyl side, 3 side chain; linkers in the order of their positions; H or OH if unused. Residues, ends and D or L forms follow the SMILES beside them. Groups on a side chain read outwards from the residue. *: point of attachment. Pteroyl = Nc1nc2ncc(CNc3ccc(C(=O)*)cc3)nc2c(=O)[nH]1; γGlu = O=C(O)[C@H](CCC(=O)[*:2])N[*:1]",
  "data": [
    {"molecule": "CSCC[C@H](N)C(=O)NCC(=O)N[C@@H](Cc1c[nH]c2ccccc12)C(=O)N[C@@H](CS)C(=O)N[C@H](C(=O)N[C@@H](CCCCNC(=O)CC[C@H](NC(=O)c1ccc(NCc2cnc3nc(N)[nH]c(=O)c3n2)cc1)C(=O)O)C(=O)O)[C@@H](C)O", "note": "[Drug 2, MGWCT-K-Folic] (H-MGWCTK([γGlu-Pteroyl])-OH; N-terminus and C-terminus assumed)", "values": [
      {"measurement": "Activity on metastatic cancer cells SW480 (number of surviving cells)", "setting": "[1]; 3.125-800 μg/ml", "value": "best results"},
      {"measurement": "IC50 as molar amount per well", "setting": "[1]; SW480 cells", "value": 0.0257, "unit": "μmol/well"},
      {"measurement": "Effect on normal human lymphocytes (number of surviving cells)", "setting": "[2]", "value": "no effect"}
    ]},
    {"molecule": "MGFLR", "values": [
      {"measurement": "Restoration of TrpR mutant G85E function (β-galactosidase activity)", "setting": "[3]", "value": "did not restore"},
      {"measurement": "Restoration of TrpR(T44M) function (β-galactosidase activity)", "setting": "[4]", "value": "restored TrpR(T44M) function"},
      {"measurement": "Transcription of LacZ", "setting": "[5]", "value": "repressed"},
      {"measurement": "Transcription of PheS", "setting": "[5]", "value": "repressed"}
    ]},
    {"molecule": "MGFWR", "values": [
      {"measurement": "Restoration of TrpR mutant G85E function (β-galactosidase activity)", "setting": "[3]", "value": "did not restore"},
      {"measurement": "Restoration of TrpR(T44M) function (β-galactosidase activity)", "setting": "[4]", "value": "restored TrpR(T44M) function"}
    ]},
    {"molecule": "MGWCT (peptide derivative) [Drug 3, Penta-peptide, no folate conjugation]", "values": [
      {"measurement": "mRNA level of 14-3-3σ", "setting": "[6]", "value": "much higher"},
      {"measurement": "mRNA level of CD95", "setting": "[6]", "value": "much higher"},
      {"measurement": "mRNA level of p21 (WAF1/Cip1)", "setting": "[6]", "value": "much higher"},
      {"measurement": "Cell status after transfecting the ligand", "setting": "[7]", "value": "growing well"},
      {"measurement": "Cell status after transfecting the ligand", "setting": "[8]", "value": "growing well"},
      {"measurement": "Cell status after transfecting the ligand", "setting": "[9]", "value": "could no longer attach to the wall and died"}
    ]}
  ]
}
